Test results reported in patent publication US5352667A, “Non-peptidic surrogates of the Arg-Gly-Asp sequence and pharmaceutical compositions comprising them” (priority 1991, dated 1994).

Tests used:
GPIIb-IIIa = GPIIb-IIIa (Homo sapiens, UniProt P05106+P08514); test: Inhibition of the binding capacity of anti-GPIIb-IIIa mAb (PAC-1) to platelets; conditions: FIG. 6, 0-500μM, ADP-activated platelets
Experimental: To investigate whether the RGD surrogates actually bind to the GPIIb-IIIa integrin, their ability to compete with a monoclonal antibody (mAb) specific to GPIIb-IIIa was investigated. This mAb, designated PAC-1, specific for the activated receptor, binds GPIIb-IIIa in an RGD-dependent manner (Taub, R. et al. (1989) J.Biol.Chem. 264: 259).
ADP-activated platelets were incubated with FITC-conjugated PAC-1 mAb in the presence of various peptidic and non-peptidic compounds, as follows: the platelet rich plasma were gel-filtrated into modified Tryode's solution (137.5 mM Nacl, 4 mN Hepes, 2.6 mM KCl,1 mM MgCl2, 3.3 mM NaH2 PO4, 5.6 mM glucose at pH 7.4) containing 350μg/ml BSA (which was used as the incubation buffer in further steps; Tryode's/BSA). The final count in the cell assays was 2×10^6 per ml. The cells were then activated with 10μM ADP and epinephrine. To examine RGD peptides and related analogues as competitors for the binding capacity of the PAC-1 mAb to platelets, the cells were incubated in 50μl Tryode's/BSA supplemented with 1 mM CaCl2 for 30 min in 25° C., in the presence of 0-500μM peptides or peptide-analogues with 10μg/ml FITC labeled PAC-1. The fluorescence profile of the cells was determined using FACScan (Beckton Dickenson) at 488 nm. In FIG. 6: GRGDSPK (empty circles), GRGESP (filled triangles), compound SF-6,5 (empty triangles), compound SF-6,6 (filled circles) (the data shown here represent results obtained in one of three experiments which were essentially identical).

[1] = target: T1, platelet GPIIb-IIIa receptor (Homo sapiens, UniProt P05106+P08514); test: Inhibition of ADP-induced platelet aggregation (platelet rich plasma); type: cell-based; conditions: for Inhibition of platelet aggregation, dose dependence, in words: FIG. 3; for Inhibition of platelet aggregation at fixed concentration, in words: FIG. 4, fixed sub-saturating 0.5 mM / 10μg/ml, 4 experiments
T1 construct: Platelet concentrates were prepared from human whole blood; endogenous in cells; host or cells: human platelets in platelet rich plasma
Experimental: To investigate the inhibitory role of the RGD analogues on adhesion, the platelet GPIIb-IIIa receptor which mediates platelet aggregation upon activation was used as a model.
Platelet concentrates were prepared from human whole blood in 10% adenine-citrate-dextrose in Fenwall bags (Baxter Travenol, Israel) followed by standard AABB protocol. Platelet rich plasma was prepared by centrifugation (2500 rpm for 5 min). Samples of platelets were counted in a Minos AST Cell Counter (Levoiselle, France). Cell aggregation was induced by […] and monitored at […] in a 4-channel Aggregometer (Bio-Data, Hatboro, Pa.). To evaluate the effect of the various RGD peptides and the peptide analogues, the platelet rich plasma was pre-incubated with the various inhibitors for 10 min at 37° C. with 10μsolutions followed by the induction of aggregation.
To examine the specificity of the inhibitory effect of the RGD-analogues on platelet aggregation, the cells were treated with various peptidic (RGD and GRGDSP) and non-peptidic (SF-6,6, SF-6,5 and AC-15) RGD analogues used at a fixed sub-saturating concentration of 0.5 mM.
An in vitro assay as described in Example 17 was carried out with the compound NS-11 to examine its ability to interfere with platelet aggregation, and compared it to the SF-6,5 surrogate.
Platelet rich plasma (PRP) was prepared from acid/citrate/dextrose anti-coagulated fresh human blood by differential centrifugation. Platelet aggregation was induced by […] and monitored at 695 nm by a 4-channel Aggregometer (Bio-Data, PA). To evaluate the effect of the RGDS peptide and the NS-8, NS-11 and NS-15 analogs, the PRP was preincubated with the inhibitors for 10 minutes at 37° C., prior to the induction of aggregation. […] In fact, 50% inhibition of platelet aggregation was achieved using a 30-fold lower concentration of NS-11 than that of RGDS.

[2] = test system: B16-melanoma cells adhesion to FN; test: Inhibition of B16-melanoma cell adhesion to FN; type: cell-based, murine; conditions: for B-16 melanoma cell adhesion to FN, in words: Table 2A; for % inhibition of adhesion of B16-melanoma cells to FN / % Adhesion of B16-melanoma cells to FN: surrogates 0.2 mM; for % inhibition of adhesion of B16-melanoma cells to FN: * P<0.05; for % Adhesion of B16-melanoma cells to FN: none 75 ± 5
Experimental: To examine the adhesive properties of tumor cells, 1 μg/50μ/well of FN or 0.3μg/well of VN were added to 96-flat bottom microtiter wells for 12 h. Unbound proteins were then washed away and remaining binding sites were blocked with 0.1% BSA added to the wells for 2 h and washed. Murine B16-melanoma F-1 cells were metabolically labeled with ^35 S-methionine (New England Nuclear) for 2 h, chased for 18 h and extensively washed. The cell suspension was resuspened in RPMI supplemented with 1% BSA containing 1 mM CaCl2 and MgCl2. Tumor cell adhesion to control wells or to wells coated with BSA was always 2-5%. The tested non-peptidic surrogates, 0.2 mM in PBS, were used to pretreat the tumor cells for 15 min before seeding the cells *, P<0.05.
In a first series of experiments, the potential inhibitory action of the RGD surrogate SF-6,5 on adhesion of B16 melanoma cells to FN or VN was compared to that of the RGE surrogate SF-6,6 and to that of RGD, GRGDSPK and GRGESP peptides.
In a further set of experiments, the inhibitory activity of the RGD surrogates SF-6,5 and NS-11 on the adhesion of B16 murine melanoma cells to FN was compared to that of the GRGDSP peptide.

Molecule	Inhibition of PAC-1 binding to platelets, in words (GPIIb-IIIa)	inhibition at 100 µM ([1]; 0.1 mM, ADP-induced, read-out: Percent inhibition of aggregation)	inhibition at 300 µM ([1]; 0.3 mM, ADP-induced, read-out: Percent inhibition of aggregation)	Inhibition of platelet aggregation, dose dependence, in words [1]	IC50 ([1]; FIG. 3, ADP-induced)	Inhibition of platelet aggregation at fixed concentration, in words [1]	Inhibition of platelet aggregation, in words ([1]; Table 3)	B-16 melanoma cell adhesion to FN, in words [2]	% inhibition of adhesion of B16-melanoma cells to FN [2]	% Adhesion of B16-melanoma cells to FN [2]
N=C(N)NCCCCCC(=O)NCCCCC(=O)O [SF-6,5, 6-aza-7-oxo-12-quanidino-dodecanoic acid]	inhibited PAC-1 staining of the cells in a dose-dependent manner	25%	55%	found to inhibit the aggregation of platelet rich plasma in a dose-dependent fashion	300 µM	even higher than that of the GRGDSPK peptide	mild, though significant effect on aggregation	inhibited tumor cell adhesion to both FN and VN	55%	34 ± 4%
N=C(N)NCCCCCC(=O)NCCCCCC(=O)O [SF-6,6]	failed to inhibit PAC-1 binding to the platelet integrin receptor			but not SF-6,6, was found to inhibit the aggregation of platelet rich plasma		very limited inhibitory effect on platelet aggregation			0%	75 ± 9%
GRGDSPK [RGD peptide (Sigma)]	inhibited PAC-1 staining of the cells in a dose-dependent manner					marked inhibitory effect on platelet aggregation		found to be inhibited by the GRGDSPK peptide	80%	15 ± 4%
